Read-outs that look alike come from different tables or passages of the source. Bridge positions count the residues as written; N and C are the ends. Square brackets hold non-standard residues; d marks the D form. Peptide text beside a SMILES is read from it. Dab = NCC[C@H](N)C(=O)O
Assays:
hERG potassium channel = molecular target: T1, hERG potassium channel (Homo sapiens, UniProt Q12809); experiment: hERG current inhibition, single cell patch clamp in HEK293 cells; type: cell-based
T1 construct: expressed in transfected cells
T1 sequence (Q12809 whole entry): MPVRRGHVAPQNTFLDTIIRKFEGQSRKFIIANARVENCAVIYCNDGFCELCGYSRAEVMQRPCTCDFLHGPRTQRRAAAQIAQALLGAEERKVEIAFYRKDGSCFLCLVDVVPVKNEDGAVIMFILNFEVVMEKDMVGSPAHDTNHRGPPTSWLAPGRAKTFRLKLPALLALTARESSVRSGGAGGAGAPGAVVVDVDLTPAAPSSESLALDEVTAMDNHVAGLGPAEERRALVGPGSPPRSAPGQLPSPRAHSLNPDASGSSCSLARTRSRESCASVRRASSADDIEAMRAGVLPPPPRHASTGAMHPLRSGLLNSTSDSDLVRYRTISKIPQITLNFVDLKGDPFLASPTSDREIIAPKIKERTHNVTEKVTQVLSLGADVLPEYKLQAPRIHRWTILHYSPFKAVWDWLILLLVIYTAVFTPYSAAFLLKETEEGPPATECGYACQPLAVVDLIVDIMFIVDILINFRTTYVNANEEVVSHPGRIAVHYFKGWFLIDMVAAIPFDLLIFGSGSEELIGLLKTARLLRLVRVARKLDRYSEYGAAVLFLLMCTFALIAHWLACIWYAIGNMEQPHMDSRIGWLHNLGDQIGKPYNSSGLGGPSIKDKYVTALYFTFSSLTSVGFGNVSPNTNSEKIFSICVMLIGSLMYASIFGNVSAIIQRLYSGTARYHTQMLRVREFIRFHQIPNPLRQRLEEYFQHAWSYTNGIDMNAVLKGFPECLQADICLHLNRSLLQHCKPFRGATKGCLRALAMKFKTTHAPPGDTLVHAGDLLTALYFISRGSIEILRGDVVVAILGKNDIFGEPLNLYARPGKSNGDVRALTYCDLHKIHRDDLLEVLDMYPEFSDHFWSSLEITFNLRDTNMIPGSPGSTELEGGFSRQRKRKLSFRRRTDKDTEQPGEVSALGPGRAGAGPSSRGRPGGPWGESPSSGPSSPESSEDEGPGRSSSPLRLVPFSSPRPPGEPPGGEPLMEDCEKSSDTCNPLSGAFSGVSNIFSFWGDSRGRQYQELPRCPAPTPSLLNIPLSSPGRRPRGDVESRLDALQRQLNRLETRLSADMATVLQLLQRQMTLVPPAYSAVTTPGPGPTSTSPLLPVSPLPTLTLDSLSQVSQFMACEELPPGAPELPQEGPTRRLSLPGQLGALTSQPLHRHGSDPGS
Protocol: Currents were recorded via single cell patch clamp.

[1] = Efficacy studies in mice (mouse thigh studies); type: in vivo; settings: mouse thigh studies with SPR741 and rifampin
Protocol: A 70 kg human weight was used in all models.
Pharmacologic HED was then calculated using the equation below: […]

in vivo [2] = settings: male, mouse, plasma, 10 mg/kg
Protocol: (§1) PK analysis was performed using Phoenix® WinNonlin® Version 6.3 (Pharsight Corp. [Mountain View, Calif.]). […] The standard species body weights were assumed to perform allometric scaling purposes. For scaling, mouse, rat, monkey, and human weight were assumed to be 0.02, 0.25, 5, and 70 kg, respectively. PK data from only male animals were available for scaling.
(§2) A MixRatio (additive and multiplicative) weighting was applied for all PK modeling.
(§3) Single dose simulations were done using the low clearance estimate and high clearance estimate obtained from allometric scaling. […] Day 1 data was unavailable for rat. Only 2-3 measurable time points were used in the mouse PK data.

[3] = GLP 14 day repeat dose toxicology study in monkeys incl. CNS assessment; settings: cynomolgus monkey, in vivo
Protocol: Histopathologic assessment was conducted on tissue sections stained with hematoxylin and eosin (H&E).
The neurological assessment was performed on study day 9 or 10 and compared to both pre-test data (study day −6 or −7) as well as the vehicle control.

[4] = rat, following 14 days of repeated dosing
in vivo [5] = settings: Sprague-Dawley, rat, plasma, iv, 1-hour IV infusion twice daily; for AUC(0-t): AUC(0-24)
[6] = GLP 14 day repeat dose study in rats, toxicology; settings: rat
Protocol: Parameters assessed during the in-life phase of the study included weekly body weights, clinical observations, survival, food consumption, ophthalmology, clinical pathology, and urine and plasma toxicokinetics. At necropsy, gross observations were recorded, organ weights were measured, and specific tissues were collected. Histopathologic assessment was conducted on tissue sections stained with hematoxylin and eosin (H&E).
The use of an escalation phase was due to the acute histamine and/or complement mediated reactions commonly seen in rats with a broad range of polymyxins.
For toxicology assessment, all animals were observed twice daily for mortality and moribundity. Clinical examinations were performed daily, and detailed physical examinations were performed weekly. Ophthalmic examinations were performed during once prior to study initiation and once during the study. Clinical pathology parameters (including Blood Urea Nitrogen and Serum Creatinine) were analyzed for all animals assigned to the scheduled necropsies. Complete necropsies were conducted on all animals, and selected organs were weighed at the scheduled necropsies. […] Gross lesions and infusion sites were examined from all animals in the low-dose group at the primary necropsy. Recovery was assessed in the mid-dose group and the control group following a 28-day non-dosing period. Following the 28-day non-dosing (recovery) period, complete necropsies were conducted on all animals, and selected organs were weighed at the scheduled necropsy. Selected tissues were examined microscopically from all animals.

[7] = Cardiopulmonary safety pharmacology study in monkeys; settings: for Body Temperature / Heart Rate / Mean Arterial Blood Pressure / QTc Interval / Respiratory Rate: monkey, in vivo
Protocol: The monkeys in the study were telemeterized prior to study start. Data was collected in one minute intervals over a 24 hour period. The data was reported in 15 minute intervals over the first three hours.

in vivo [8] = settings: male, rat, plasma, 10 mg/kg
Protocol: as §1, §2, §3

in vivo [9] = settings: male, monkey, plasma, 20 mg/kg
Protocol: as §1, §2, §3

[10] = human, fixed exponent, monkey PK data
[11] = human, fixed exponent, mouse PK data
[12] = human, fixed exponent, rat PK data
[13] = human, floating exponent, mouse, rat and monkey PK data
[14] = human, floating exponent, rat and monkey PK data
[15] = 5 mg/kg/day, 5 mg/kg/day, study day 1
[16] = 5 mg/kg/day, 5 mg/kg/day, study day 14
[17] = 10 mg/kg/day, 10 mg/kg/day, study day 1
[18] = 10 mg/kg/day, 10 mg/kg/day, study day 14
[19] = 15 mg/kg/day, 15 mg/kg/day, study day 1
[20] = 15 mg/kg/day, 15 mg/kg/day, study day 14

COc1cc(N)c(Cl)cc1C(=O)NC1CCN(CCCOc2ccc(F)cc2)CC1OC (stereo not shown) [Cisapride, reference compound]
inhibition at 0.047 μg/mL (hERG potassium channel; human): 79.8%

CC(=O)N[C@H](C(=O)N[C@H](CO)C(=O)N[C@H]1CCNC(=O)[C@H]([C@@H](C)O)NC(=O)[C@H](CCN)NC(=O)[C@H](CCN)NC(=O)[C@H](CC(C)C)NC(=O)[C@@H](Cc2ccccc2)NC(=O)[C@H](CCN)NC1=O)[C@@H](C)O [SPR741, Acetyl-Thr-dSer-cy[Dab-Dab-dPhe-Leu-Dab-Dab-Thr]] (Ac-T[dS][Dab][Dab][dF]L[Dab][Dab]T; lactam 3-C)
AUC value of efficacy data [1]: 60 µg·h/mL
Vd (in vivo [2]): 0.179 L/kg
clearance (in vivo [2]): 7.37 mL/min/kg
IC50 (hERG potassium channel): could not be calculated
Change in mean hERG-mediated potassium currents (hERG potassium channel; concentrations up to 300 μg/mL): no meaningful change
inhibition at 10 μg/mL (hERG potassium channel; human): 0.08%
inhibition at 30 μg/mL (hERG potassium channel; human): -0.09%
inhibition at 100 μg/mL (hERG potassium channel; human): 1.62%
inhibition at 300 μg/mL (hERG potassium channel; human): 3.87%
NOAEL at 14 days ([3]; both): 40 mg/kg/day
Reversibility of nephrotoxicity [3]: fully reversible
CL (human 70 kg, fixed exponent, monkey PK data): 70.8 mg/h/kg
CL (human 70 kg, fixed exponent, mouse PK data): 57.5 mg/h/kg
CL (human 70 kg, fixed exponent, rat PK data): 103 mg/h/kg
CL [10]: 1.18 mL/min/kg
T1/2 [10]: 2.33 h
CL [11]: 0.958 mL/min/kg
T1/2 [11]: 2.16 h
Vd [11]: 0.179 L/kg
CL [12]: 1.72 mL/min/kg
T1/2 [12]: 2.31 h
Vd [12]: 0.345 L/kg
CL [13]: 1.5 mL/min/kg
T1/2 [13]: 2.44 h
Vd [13]: 0.315 L/kg
CL [14]: 0.847 mL/min/kg
T1/2 [14]: 2.34 h
Vd [14]: 0.172 L/kg
Systemic exposure versus dose [4]: dose dependent proportional systemic exposure
AUC(0-t) (in vivo [5]; [15]): 8200 ng·h/mL
AUC(0-t) (in vivo [5]; [16]): 8300 ng·h/mL
Cmax (in vivo [5]; [15]): 3400 ng/mL
Cmax (in vivo [5]; [16]): 3300 ng/mL
AUC(0-t) (in vivo [5]; [17]): 25000 ng·h/mL
AUC(0-t) (in vivo [5]; [18]): 20300 ng·h/mL
Cmax (in vivo [5]; [17]): 9500 ng/mL
Cmax (in vivo [5]; [18]): 6700 ng/mL
AUC(0-t) (in vivo [5]; [19]): 47400 ng·h/mL
AUC(0-t) (in vivo [5]; [20]): 32900 ng·h/mL
Cmax (in vivo [5]; [19]): 14900 ng/mL
Cmax (in vivo [5]; [20]): 10800 ng/mL
Tolerability ([6]; dose levels higher than 5 mg/kg): exhibited toxicity
Tolerability ([6]; in vivo, 5 mg/kg): well tolerated
% BUN increase relative to control (mg/dL) ([6]; in vivo, 10 mg/kg/day): 34%
% BUN increase relative to control (mg/dL) ([6]; in vivo, 15 mg/kg/day): 59%
% Control CRN ([6]; in vivo, 15 mg/kg/day): 59%
Body Temperature ([7]; 5 mg/kg): 38.3 °C
Heart Rate ([7]; 5 mg/kg): 142 bpm
Mean Arterial Blood Pressure ([7]; 5 mg/kg): 105 mm Hg
QTc Interval ([7]; 5 mg/kg): 220 ms
Respiratory Rate ([7]; 5 mg/kg): 27
Body Temperature ([7]; 10 mg/kg): 38.3 °C
Heart Rate ([7]; 10 mg/kg): 141 bpm
Mean Arterial Blood Pressure ([7]; 10 mg/kg): 104 mm Hg
QTc Interval ([7]; 10 mg/kg): 222 ms
Respiratory Rate ([7]; 10 mg/kg): 25
Body Temperature ([7]; 20 mg/kg): 38.7 °C
Heart Rate ([7]; 20 mg/kg): 145 bpm
Mean Arterial Blood Pressure ([7]; 20 mg/kg): 97 mm Hg
QTc Interval ([7]; 20 mg/kg): 220 ms
Respiratory Rate ([7]; 20 mg/kg): 26
SPR741-related clinical signs or changes in body weight, body temperature, blood pressures, heart rate, ECG intervals, respiratory rate, tidal volume, minute volume ([7]; monkeys, cardiopulmonary study): no SPR741-related clinical signs
Vd (in vivo [8]): 0.345 L/kg
clearance (in vivo [8]): 7.05 mL/min/kg
Vd (in vivo [9]): 0.238 L/kg
clearance (in vivo [9]): 2.28 mL/min/kg

Reference: patent US20190192618A1 (priority 2016, published 2019)
